Reference: patent publication US20210009564A1, “CALPAIN MODULATORS AND THERAPEUTIC USES THEREOF” (BLADE THERAPERTICS, INC., priority 2018, published 2021)

What was measured:
Human Calpain 2/NS1 = target: T1, Human Calpain 2/NS1 (Homo sapiens, UniProt P17655); assay: Calpain inhibition, continuous fluorescence (FRET substrate) assay, calpain 2; format: biochemical; conditions: SensoLyte 520 FRET substrate, 25C
T1 sequence (P17655 1-700): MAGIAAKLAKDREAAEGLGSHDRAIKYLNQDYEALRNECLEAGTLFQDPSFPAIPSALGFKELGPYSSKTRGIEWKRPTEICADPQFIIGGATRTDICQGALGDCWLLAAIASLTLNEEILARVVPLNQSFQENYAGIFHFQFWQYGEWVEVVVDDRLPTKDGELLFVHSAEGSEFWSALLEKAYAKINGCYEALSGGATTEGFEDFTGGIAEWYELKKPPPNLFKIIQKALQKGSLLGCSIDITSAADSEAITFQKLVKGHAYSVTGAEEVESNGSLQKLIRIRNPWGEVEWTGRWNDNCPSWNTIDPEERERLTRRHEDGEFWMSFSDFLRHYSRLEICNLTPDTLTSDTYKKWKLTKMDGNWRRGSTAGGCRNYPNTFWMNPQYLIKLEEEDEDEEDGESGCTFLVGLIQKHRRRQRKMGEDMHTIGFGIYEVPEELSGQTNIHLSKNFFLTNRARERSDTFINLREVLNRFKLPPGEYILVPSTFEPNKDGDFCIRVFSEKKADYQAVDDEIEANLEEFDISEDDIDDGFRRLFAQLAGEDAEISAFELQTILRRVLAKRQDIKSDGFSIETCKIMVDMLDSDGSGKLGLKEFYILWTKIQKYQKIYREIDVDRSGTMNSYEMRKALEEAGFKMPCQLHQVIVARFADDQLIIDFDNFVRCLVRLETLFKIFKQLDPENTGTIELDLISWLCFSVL
T1 sequence (P04632 1-268 partner): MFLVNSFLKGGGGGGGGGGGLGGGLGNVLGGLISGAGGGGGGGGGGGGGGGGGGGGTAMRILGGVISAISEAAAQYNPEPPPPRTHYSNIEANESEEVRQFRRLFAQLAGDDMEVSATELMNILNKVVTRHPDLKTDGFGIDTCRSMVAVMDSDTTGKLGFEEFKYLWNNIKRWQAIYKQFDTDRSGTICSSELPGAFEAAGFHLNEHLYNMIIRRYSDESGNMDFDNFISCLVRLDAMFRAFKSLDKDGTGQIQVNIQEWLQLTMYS
Outline: (§1)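 Continuous FRET read-out (ex 490/em 520 nm) of 5-FAM/QXL 520 substrate cleavage, started by adding substrate with CaCl2 for in-situ activation after enzyme–inhibitor preincubation at 25 °C. Buffer was Tris 50 mM pH 7.5, NaCl 100 mM, DTT 1 mM. IC50 fitted (4-parameter) from rates over 1-5 min.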

Human Calpain 9/NS1 = target: T2, Human Calpain 9/NS1 (Homo sapiens, UniProt O14815); assay: Calpain inhibition, continuous fluorescence (FRET substrate) assay, calpain 9; format: biochemical; conditions: SensoLyte 520 FRET substrate, 25C
T2 sequence (O14815 1-690): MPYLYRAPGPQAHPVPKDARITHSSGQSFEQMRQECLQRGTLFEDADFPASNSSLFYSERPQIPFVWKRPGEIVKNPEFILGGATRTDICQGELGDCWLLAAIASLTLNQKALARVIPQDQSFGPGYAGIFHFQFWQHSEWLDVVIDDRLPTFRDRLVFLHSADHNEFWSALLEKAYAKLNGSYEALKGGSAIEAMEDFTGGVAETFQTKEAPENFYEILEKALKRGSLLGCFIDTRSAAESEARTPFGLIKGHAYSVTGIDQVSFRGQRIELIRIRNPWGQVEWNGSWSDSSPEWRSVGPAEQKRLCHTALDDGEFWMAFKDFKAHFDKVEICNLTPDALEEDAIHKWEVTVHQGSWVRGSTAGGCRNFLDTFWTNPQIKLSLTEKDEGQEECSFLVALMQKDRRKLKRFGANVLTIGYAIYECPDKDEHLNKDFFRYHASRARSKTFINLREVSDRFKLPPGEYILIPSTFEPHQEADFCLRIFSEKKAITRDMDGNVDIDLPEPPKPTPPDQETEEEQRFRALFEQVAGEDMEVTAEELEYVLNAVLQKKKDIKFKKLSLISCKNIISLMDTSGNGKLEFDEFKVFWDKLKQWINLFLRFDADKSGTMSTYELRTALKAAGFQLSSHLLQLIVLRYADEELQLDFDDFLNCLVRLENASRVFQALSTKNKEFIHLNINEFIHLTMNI
T2 sequence (P04632 1-268 partner): T1 sequence (P04632 1-268 partner)
Outline: as §1

[1] = test system: Calpain activity in SH-SY5Y cells; assay: SH-SY5Y spectrin breakdown product (SBDP-150) western blot assay; format: cell-based; conditions: Homo sapiens, read-out: SH-SY5Y Spectrin IC50
Human Calpain 1/NS1 = target: T3, Human Calpain 1/NS1 (Homo sapiens, UniProt P07384); assay: Calpain inhibition, continuous fluorescence (FRET substrate) assay, calpain 1; format: biochemical; conditions: SensoLyte 520 FRET substrate, 25C
T3 sequence (P07384 1-714): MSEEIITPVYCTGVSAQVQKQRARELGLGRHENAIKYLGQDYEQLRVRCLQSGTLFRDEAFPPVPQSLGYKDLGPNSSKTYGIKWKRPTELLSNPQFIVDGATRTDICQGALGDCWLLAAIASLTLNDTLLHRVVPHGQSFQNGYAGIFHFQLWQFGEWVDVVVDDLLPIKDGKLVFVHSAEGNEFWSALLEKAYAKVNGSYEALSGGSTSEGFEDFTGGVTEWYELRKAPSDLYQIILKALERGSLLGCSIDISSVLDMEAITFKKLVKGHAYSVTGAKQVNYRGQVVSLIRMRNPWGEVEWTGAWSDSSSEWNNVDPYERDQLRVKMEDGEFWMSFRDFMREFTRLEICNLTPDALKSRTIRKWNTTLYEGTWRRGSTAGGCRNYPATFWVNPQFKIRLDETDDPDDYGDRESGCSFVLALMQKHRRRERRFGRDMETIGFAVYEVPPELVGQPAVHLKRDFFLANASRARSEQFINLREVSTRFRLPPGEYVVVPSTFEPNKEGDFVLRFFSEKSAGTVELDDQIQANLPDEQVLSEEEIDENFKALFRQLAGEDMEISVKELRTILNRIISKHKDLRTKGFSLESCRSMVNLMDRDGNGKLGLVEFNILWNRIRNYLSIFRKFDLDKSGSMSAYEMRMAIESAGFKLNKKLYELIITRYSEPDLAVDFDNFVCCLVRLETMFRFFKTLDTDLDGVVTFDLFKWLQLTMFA
T3 sequence (P04632 1-268 partner): T1 sequence (P04632 1-268 partner)
Outline: as §1

[2] = test system: Calpain activity in SH-SY5Y cells; assay: SH-SY5Y Suc-LLVY-AMC fluorescence assay; format: cell-based; conditions: Homo sapiens, read-out: SH-SY5Y + AMC IC50
[3] = SH-SY5Y cells, 25 uM A23187, SBDP-150 western blot
[4] = SH-SY5Y cells, 100 uM Suc-LLVY-AMC

IC50 (Human Calpain 2/NS1) [µM]	IC50 (Human Calpain 9/NS1) [µM]	IC50 [1, 3] [µM]	IC50 (Human Calpain 1/NS1) [µM]	IC50 [2, 4] [µM]	SMILES	IC50 ([1]; SH-SY5Y) [µM]	IC50 ([2]; SH-SY5Y) [µM]
< 3	< 3	< 10	< 3	< 10	COC(=O)C(=O)C(Cc1ccccc1)NC(=O)c1nsnc1-c1ccccc1 (centres unmarked) [Compound 38, METHYL 2-OXO-4-PHENYL-3-(4-PHENYL-1,2,5-THIADIAZOLE-3-CARBOXAMIDO)BUTANOATE]		
< 3	< 3	> 25	< 3	> 25	Cn1cc(C(=O)NC(Cc2ccccc2)C(=O)C(N)=O)c(-c2ccc3cccnc3c2)n1 (centres unmarked) [Compound 1, N-(4-AMINO-3,4-DIOXO-1-PHENYLBUTAN-2-YL)-1-METHYL-3-(QUINOLIN-7-YL)-1H-PYRAZOLE-4-CARBOXAMIDE]		
< 3	< 3	< 10	< 3	< 10	O=C(O)C(=O)C(Cc1ccccc1)NC(=O)c1nsnc1-c1ccccc1 (centres unmarked) [Compound 67, 2-OXO-4-PHENYL-3-(4-PHENYL-1,2,5-THIADIAZOLE-3-CARBOXAMIDO)BUTANOIC ACID]		
< 3	< 3	> 25	< 3	< 10	COC(=O)C(=O)C(Cc1ccccc1)NC(=O)c1cn(C)nc1-c1ccccc1F (centres unmarked) [Compound 40, METHYL 3-(3-(2-FLUOROPHENYL)-1-METHYL-1H-PYRAZOLE-4-CARBOXAMIDO)-2-OXO-4-PHENYLBUTANOATE]		
< 3	< 3	10 to 25	< 3	> 25	NC(=O)C(=O)C(Cc1ccccc1)NC(=O)c1cnoc1-c1cccc2c1OC(F)(F)O2 (centres unmarked) [Compound 8, N-(4-AMINO-3,4-DIOXO-1-PHENYLBUTAN-2-YL)-5-(2,2-DIFLUOROBENZO[d][1,3]DIOXOL-4-YL)ISOXAZOLE-4-CARBOXAMIDE]		
< 3	< 3	> 25	< 3	< 10	Cc1nc(-c2ccccc2F)c(C(=O)NC(Cc2ccccc2)C(=O)C(=O)O)o1 (centres unmarked) [Compound 64, 3-(4-(2-FLUOROPHENYL)-2-METHYLOXAZOLE-5-CARBOXAMIDO)-2-OXO-4-PHENYLBUTANOIC ACID]		
< 3	< 3	< 10	< 3	< 10	Cn1ncc2c(-c3nn(C(F)F)cc3C(=O)NC(Cc3ccccc3)C(=O)C(N)=O)cccc21 (centres unmarked) [Compound 62, N-(4-AMINO-3,4-DIOXO-1-PHENYLBUTAN-2-YL)-1-(DIFLUOROMETHYL)-3-(1-METHYL-1H-INDAZOL-4-YL)-1H-PYRAZOLE-4-CARBOXAMIDE]		
< 3	< 3	10 to 25	< 3	< 10	Cc1cc(C(=O)NC(Cc2ccccc2)C(=O)C(N)=O)n(-c2ncc3ccccc3n2)n1 (centres unmarked) [Compound 11, N-(4-AMINO-3,4-DIOXO-1-PHENYLBUTAN-2-YL)-3-METHYL-1-(QUINAZOLIN-2-YL)-1H-PYRAZOLE-5-CARBOXAMIDE]		
< 3	< 3	< 10	< 3	< 10	Cc1nc(-c2cccc3ccsc23)c(C(=O)NC(Cc2ccccc2)C(=O)C(N)=O)o1 (centres unmarked) [Compound 91, N-(4-AMINO-3,4-DIOXO-1-PHENYLBUTAN-2-YL)-4-(BENZO[b]THIOPHEN-7-YL)-2-METHYLOXAZOLE-5-CARBOXAMIDE]		
< 3	< 3	> 25	< 3	> 25	Cn1cc(C(=O)NC(Cc2ccccc2)C(=O)C(N)=O)c(-c2cccc3cn(C)nc23)n1 (centres unmarked) [Compound 99, N-(4-AMINO-3,4-DIOXO-1-PHENYLBUTAN-2-YL)-1-METHYL-3-(2-METHYL-2H-INDAZOL-7-YL)-1H-PYRAZOLE-4-CARBOXAMIDE]		
< 3	< 3	10 to 25	< 3	< 10	Cc1nc(-c2ccccc2F)c(C(=O)NC(Cc2cccc(F)c2)C(=O)C(N)=O)o1 (centres unmarked) [Compound 87, N-(4-AMINO-1-(3-FLUOROPHENYL)-3,4-DIOXOBUTAN-2-YL)-4-(2-FLUOROPHENYL)-2-METHYLOXAZOLE-5-CARBOXAMIDE]		
< 3	< 3	< 10	< 3	< 10	Cn1cc2c(-c3nn(C(F)F)cc3C(=O)NC(Cc3ccccc3)C(=O)C(N)=O)cccc2n1 (centres unmarked) [Compound 61, N-(4-AMINO-3,4-DIOXO-1-PHENYLBUTAN-2-YL)-1-(DIFLUOROMETHYL)-3-(2-METHYL-2H-INDAZOL-4-YL)-1H-PYRAZOLE-4-CARBOXAMIDE]		
< 3	< 3	10 to 25	< 3	< 10	Cc1nc(-c2coc(Cl)c2)c(C(=O)NC(Cc2ccccc2)C(=O)C(N)=O)o1 (centres unmarked) [Compound 92, N-(4-AMINO-3,4-DIOXO-1-PHENYLBUTAN-2-YL)-4-(5-CHLOROFURAN-3-YL)-2-METHYLOXAZOLE-5-CARBOXAMIDE]		
> 10	> 10	> 25	> 10	< 10	O=C(NC(Cc1ccccc1)C(=O)c1ncco1)c1nsnc1-c1ccccc1 (centres unmarked) [Compound 85, N-(1-(OXAZOL-2-YL)-1-OXO-3-PHENYLPROPAN-2-YL)-4-PHENYL-1,2,5-THIADIAZOLE-3-CARBOXAMIDE]		
< 3	< 3	< 10	< 3	< 10	Cn1cc(C(=O)NC(Cc2ccccc2)C(=O)C(N)=O)c(-c2cccc3oc(=O)[nH]c23)n1 (centres unmarked) [Compound 35, N-(4-AMINO-3,4-DIOXO-1-PHENYLBUTAN-2-YL)-1-METHYL-3-(2-OXO-2,3-DIHYDROBENZO[D]OXAZOL-4-YL)-1H-PYRAZOLE-4-CARBOXAMIDE]		

SMILES	IC50 (Human Calpain 2/NS1) [µM]	IC50 (Human Calpain 9/NS1) [µM]	IC50 [1, 3] [µM]	IC50 (Human Calpain 1/NS1) [µM]	IC50 [2, 4] [µM]	IC50 ([1]; SH-SY5Y) [µM]	IC50 ([2]; SH-SY5Y) [µM]
CNC(=O)c1cccc(-c2nn(C)cc2C(=O)NC(Cc2ccccc2)C(=O)C(N)=O)c1 (centres unmarked) [Compound 17]	< 3	< 3		< 3		> 25	10 to 25
